Earlier results as cited in patent publication US10034966B2, “Coated vaso-occlusive device and methods for treatment of aneurysms” (Carnegie Mellon University, priority 2013, dated 2018).

Test system: L929 fibroblasts

COC(=O)C1=CO[C@@H](O)[C@@H]2C(CO)=CC[C@H]12 [genipin, methyl (1S,2R,6S)-2-hydroxy-9-(hydroxymethyl)-3-oxabicyclo[4.3.0]nona-4,8-diene-5-carboxylate]
cell death to L929 fibroblasts (exposures of 5 mM and 10 mM): can cause cell death | cytotoxicity, cell samples compared with controls (incubated in 1 mM): indistinguishable from controls
